For the assay, the target named is human GPR40 receptor (Homo sapiens (Human), UniProt O14842). Put plainly: IP1 accumulation measurements using the IPOne assay system. The class given is cell-based. The conditions noted are these: 1321N1 cells stably expressing human GPR40 receptor, 1 h stimulation. The procedure: IP1 accumulation measurements using the IPOne assay system—1321N1 cells stably expressing human GPR40 receptor (Euroscreen, Belgium) are seeded 24 h before the assay in white 384-well plates in culture medium containing 10% FCS, 1% Na-Pyruvate and 400 μg/mL G418. IP1 is assayed according to the manufacturer's description (Cisbio Bioassays, France). In brief, the assay is started by substitution of the culture medium by stimulation buffer (Hepes 10 mM, CaCl2 1 mM, MgCl2 0.5 mM, KCl 4.2 mM, NaCl 146 mM, glucose 5.5 mM and LiCl 50 mM, pH 7.4). Cells are stimulated for 1 h at 37° C., 5% CO2 by addition of the compounds that are diluted in stimulation buffer containing LiCl. Assays are stopped by adding HTRF-conjugates (IP1-d2 and Anti-IP1 cryptate Tb) and lysis buffer, provided by the manufacturer. After an incubation time of 1 h at room temperature plates are measured using an EnVision™, Perkin Elmer. The obtained fluorescence ratios at 665/615 […] are then used to calculate the pEC50 values using Assay Explorer 3.3 Software (Accelrys, Inc.) by interpolation using an IP1 reference curve and subsequent sigmoidal curve fitting allowing for a variable hill slope.

EC50 data for 26 compounds are collected here from patent US9597310B2, “Indanyloxydihydrobenzofuranylacetic acids” (Boehringer Ingelheim International GmbH, priority 2012, dated 2017).

As usually defined, the EC50 is the midpoint of the concentration-response curve. Lower therefore signals an effect from little substance.

human GPR40 receptor, sequence (O14842 whole entry): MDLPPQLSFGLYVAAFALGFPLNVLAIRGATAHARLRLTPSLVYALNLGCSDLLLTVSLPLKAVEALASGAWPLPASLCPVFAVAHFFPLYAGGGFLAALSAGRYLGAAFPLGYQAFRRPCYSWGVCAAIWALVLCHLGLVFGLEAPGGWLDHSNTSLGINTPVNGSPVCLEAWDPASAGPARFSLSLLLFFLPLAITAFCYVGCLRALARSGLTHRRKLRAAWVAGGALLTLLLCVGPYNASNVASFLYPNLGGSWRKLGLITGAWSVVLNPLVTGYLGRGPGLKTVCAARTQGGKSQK

As for `CC(C)(O)Cn1cc(-c2cc(F)c(Oc3ccc(F)c4c3CC[C@H]4Oc3ccc4c(c3)OC[C@H]4CC(=O)O)cc2F)cn1` [Example 29, [(S)-6-((R)-4-{2,5-Difluoro-4-[1-(2-hydroxy-2-methylpropyl)-1H-pyrazol-4-yl]phenoxy}-7-fluoro-indan-1-yloxy)-2,3-dihydrobenzofuran-3-yl]-acetic acid], the half-maximal effective concentration (EC50) was 12 nM. That is a double-digit nanomolar value.

As for `CC(C)(O)CCn1ncc2cc(Oc3ccc(F)c4c3CC[C@H]4Oc3ccc4c(c3)OC[C@H]4CC(=O)O)ccc21` [Example 30, ((S)-6-{(R)-7-Fluoro-4-[1-(3-hydroxy-3-methylbutyl)-1H-indazol-5-yloxy]-indan-1-yloxy}-2,3-dihydrobenzofuran-3-yl)-acetic acid], the EC50 was 13 nM.

Take `CC(C)(O)Cn1cc(-c2cc(F)c(Oc3ccc(F)c4c3CC[C@H]4Oc3ccc4c(c3)OC[C@H]4CC(=O)O)c(F)c2)cn1` [Example 31, [(S)-6-((R)-4-{2,6-Difluoro-4-[1-(2-hydroxy-2-methylpropyl)-1H-pyrazol-4-yl]phenoxy}-7-fluoro-indan-1-yloxy)-2,3-dihydrobenzofuran-3-yl]-acetic acid]: the midpoint of the response, the EC50, lay at 58 nM.

Consider `Cc1nc(-c2ccc(Oc3ccc(F)c4c3CC[C@H]4Oc3ccc4c(c3)OC[C@H]4CC(=O)O)cc2)cs1` [Example 32, ((S)-6-{(R)-7-Fluoro-4-[4-(2-methylthiazol-4-yl)phenoxy]-indan-1-yloxy}-2,3-dihydrobenzofuran-3-yl)-acetic acid], for which the EC50 came out at 13 nM.

For `CC(C)(O)CCOc1cc(F)c(Oc2ccc(F)c3c2CC[C@H]3Oc2ccc3c(c2)OC[C@H]3CC(=O)O)cc1F` [Example 34, ((S)-6-{(R)-4-[2,5-Difluoro-4-(3-hydroxy-3-methylbutoxy)phenoxy]-7-fluoro-indan-1-yloxy}-2,3-dihydrobenzofuran-3-yl)-acetic acid], the EC50 is 6 nM.

`O=C(O)C[C@@H]1COc2cc(O[C@@H]3CCc4c(Oc5ccc(CC6CCOCC6)cc5)ccc(F)c43)ccc21` [Example 35, [(S)-6-((R)-7-Fluoro-4-{4-[(tetrahydro-2H-pyran-4-yl)methyl]phenoxy}-indan-1-yloxy)-2,3-dihydrobenzofuran-3-yl]-acetic acid] came in with an EC50 of 5 nM.

Consider `CC(C)(O)CCn1ncc2ccc(Oc3ccc(F)c4c3CC[C@H]4Oc3ccc4c(c3)OC[C@H]4CC(=O)O)cc21` [Example 36, ((S)-6-{(R)-7-Fluoro-4-[1-(3-hydroxy-3-methylbutyl)-1H-indazol-6-yloxy]-indan-1-yloxy}-2,3-dihydrobenzofuran-3-yl)-acetic acid], for which the EC50 is 8 nM. This EC50 is about 1.6-fold higher than that of the compound before.

Compound `O=C(O)C[C@@H]1COc2cc(O[C@@H]3CCc4c(Oc5ccc(OCC6(O)CCOCC6)c(F)c5)ccc(F)c43)ccc21` [Example 37, [(S)-6-((R)-7-Fluoro-4-{3-fluoro-4-[(4-hydroxytetrahydro-2H-pyran-4-yl)-methoxy]phenoxy}-indan-1-yloxy)-2,3-dihydrobenzofuran-3-yl]-acetic acid] registered an EC50 of 8 nM.

`Cn1ccnc1-c1ccc(Oc2ccc(F)c3c2CC[C@H]3Oc2ccc3c(c2)OC[C@H]3CC(=O)O)cc1` [Example 38, ((S)-6-{(R)-7-Fluoro-4-[4-(1-methyl-1H-imidazol-2-yl)phenoxy]-indan-1-yloxy}-2,3-dihydrobenzofuran-3-yl)-acetic acid] displayed an EC50 of 41 nM.

For the compound `CS(=O)(=O)CCCOc1cc(F)c(Oc2ccc(F)c3c2CC[C@H]3Oc2ccc3c(c2)OC[C@H]3CC(=O)O)cc1F` [Example 39, [(S)-6-((R)-4-{2,5-Difluoro-4-[3-(methylsulfonyl)propoxy]phenoxy}-7-fluoro-indan-1-yloxy)-2,3-dihydrobenzofuran-3-yl]-acetic acid], a half-maximal response (EC50) required 23 nM.

`Cc1cc(OCCC(C)(C)O)cc(C)c1Oc1ccc(F)c2c1CC[C@H]2Oc1ccc2c(c1)OC[C@H]2CC(=O)O` [Example 40, ((S)-6-{(R)-7-Fluoro-4-[4-(3-hydroxy-3-methylbutoxy)-2,6-dimethylphenoxy]-indan-1-yloxy}-2,3-dihydrobenzofuran-3-yl)-acetic acid]: the midpoint of the response, the EC50, lay at 733 nM.

With `CC(C)(O)CCCc1ccc(C#N)c(Oc2ccc(F)c3c2CC[C@H]3Oc2ccc3c(c2)OC[C@H]3CC(=O)O)c1` [Example 41, ((S)-6-{(R)-4-[2-Cyano-5-(4-hydroxy-4-methylpentyl)phenoxy]-7-fluoro-indan-1-yloxy}-2,3-dihydrobenzofuran-3-yl)-acetic acid], the EC50 was determined as 85 nM.

With `CC(C)(O)CCOc1ccc(C#N)c(Oc2ccc(F)c3c2CC[C@H]3Oc2ccc3c(c2)OC[C@H]3CC(=O)O)c1` [Example 42, ((S)-6-{(R)-4-[2-Cyano-5-(3-hydroxy-3-methylbutoxy)-phenoxy]-7-fluoro-indan-1-yloxy}-2,3-dihydrobenzofuran-3-yl)-acetic acid], the EC50 is 120 nM.

In turn, `N#Cc1cc(Oc2ccc(F)c3c2CC[C@H]3Oc2ccc3c(c2)OC[C@H]3CC(=O)O)ccc1O[C@@H]1CCOC1` [Example 43, ((S)-6-{(R)-4-[3-Cyano-4-((R)-tetrahydrofuran-3-yloxy)phenoxy]-7-fluoro-indan-1-yloxy}-2,3-dihydrobenzofuran-3-yl)-acetic acid] had an EC50 of 18 nM.

Consider `CC(C)(O)CCOc1ccc(Oc2ccc(F)c3c2CC[C@H]3Oc2ccc3c(c2)OC[C@H]3CC(=O)O)cc1C#N` [Example 44, ((S)-6-{(R)-4-[3-Cyano-4-(3-hydroxy-3-methylbutoxy)phenoxy]-7-fluoro-indan-1-yloxy}-2,3-dihydrobenzofuran-3-yl)-acetic acid], for which the EC50 is 7 nM.

The compound `CC(C)(O)CCOc1ccc(F)c(Oc2ccc(F)c3c2CC[C@H]3Oc2ccc3c(c2)OC[C@H]3CC(=O)O)c1` [Example 45, ((S)-6-{(R)-7-Fluoro-4-[2-fluoro-5-(3-hydroxy-3-methylbutoxy)phenoxy]-indan-1-yloxy}-2,3-dihydrobenzofuran-3-yl)-acetic acid] returned an EC50 of 29 nM.

For the compound `O=C(O)C[C@@H]1COc2cc(O[C@@H]3CCc4c(Oc5cc(OC6CCOCC6)ccc5F)ccc(F)c43)ccc21` [Example 46, ((S)-6-{(R)-7-Fluoro-4-[2-fluoro-5-(tetrahydro-2H-pyran-4-yloxy)phenoxy]-indan-1-yloxy}-2,3-dihydrobenzofuran-3-yl)-acetic acid], it took 62 nM to reach a half-maximal effect (EC50).

Compound `CC(C)(O)CCOc1ccc(Oc2ccc(F)c3c2CC[C@H]3Oc2ccc3c(c2)OC[C@H]3CC(=O)O)c(C#N)c1` [Example 47, ((S)-6-{(R)-4-[2-Cyano-4-(3-hydroxy-3-methylbutoxy)phenoxy]-7-fluoro-indan-1-yloxy}-2,3-dihydrobenzofuran-3-yl)-acetic acid] yielded an EC50 of 8 nM. Compared with the last compound, the EC50 is about 7.8-fold lower.

As for `Cn1nccc1-c1ccc(Oc2ccc(F)c3c2CC[C@H]3Oc2ccc3c(c2)OC[C@H]3CC(=O)O)c(C#N)c1` [Example 48, ((S)-6-{(R)-4-[2-Cyano-4-(1-methyl-1H-pyrazol-5-yl)phenoxy]-7-fluoro-indan-1-yloxy)-2,3-dihydrobenzofuran-3-yl}-acetic acid], the EC50 was 9 nM. This EC50 and that of the compound before are within 1.5-fold of each other.

As for `Cc1noc(C)c1-c1ccc(Oc2ccc(F)c3c2CC[C@H]3Oc2ccc3c(c2)OC[C@H]3CC(=O)O)c(C#N)c1` [Example 49, ((S)-6-{(R)-4-[2-Cyano-4-(3,5-dimethylisoxazol-4-yl)phenoxy]-7-fluoro-indan-1-yloxy}-2,3-dihydrobenzofuran-3-yl)-acetic acid], the EC50 was found to be 17 nM.

Take `O=C(O)C[C@@H]1COc2cc(O[C@@H]3CCc4c(Oc5ccc(OC6CCOCC6)cc5F)ccc(F)c43)ccc21` [Example 50, ((S)-6-{(R)-7-Fluoro-4-[2-fluoro-4-(tetrahydro-2H-pyran-4-yloxy)phenoxy]-indan-1-yloxy}-2,3-dihydrobenzofuran-3-yl)-acetic acid]: the response was half-maximal at 4 nM (EC50). Compared with the last compound, the EC50 is about 4.2-fold lower.

`N#Cc1ccc(Oc2ccc(F)c3c2CC[C@H]3Oc2ccc3c(c2)OC[C@H]3CC(=O)O)cc1OC1CCOCC1` [Example 51, ((S)-6-{(R)-4-[4-Cyano-3-(tetrahydro-2H-pyran-4-yloxy)phenoxy]-7-fluoro-indan-1-yloxy}-2,3-dihydrobenzofuran-3-yl)-acetic acid] displayed a concentration giving a half-maximal response (EC50) of 29 nM.

In turn, `CC(C)(O)COc1cc(Oc2ccc(F)c3c2CC[C@H]3Oc2ccc3c(c2)OC[C@H]3CC(=O)O)ccc1C#N` [Example 52, ((S)-6-{(R)-4-[4-Cyano-3-(2-hydroxy-2-methylproproxy)phenoxy]-7-fluoro-indan-1-yloxy}-2,3-dihydrobenzofuran-3-yl)-acetic acid] showed an EC50 of 31 nM.

Turning to `CC(C)(O)CCOc1ccc(Oc2ccc(F)c3c2CC[C@H]3Oc2ccc3c(c2)OC[C@H]3CC(=O)O)c(F)c1` [Example 53, ((S)-6-{(R)-7-Fluoro-4-[2-fluoro-4-(3-hydroxy-3-methylbutoxy)phenoxy]-indan-1-yloxy}-2,3-dihydrobenzofuran-3-yl)-acetic acid], the EC50 came out at 7 nM. Against the preceding compound, the EC50 is about 4.4-fold lower.

Compound `Cc1noc(C)c1-c1ccc(Oc2ccc(F)c3c2CC[C@H]3Oc2ccc3c(c2)OC[C@H]3CC(=O)O)c(F)c1` [Example 54, ((S)-6-{(R)-4-[4-(3,5-Dimethylisoxazol-4-yl)-2-fluorophenoxy]-7-fluoro-indan-1-yloxy}-2,3-dihydrobenzofuran-3-yl)-acetic acid] registered an EC50 of 9 nM. This EC50 and that of the compound before are within 1.5-fold of each other.

`Cn1nccc1-c1ccc(Oc2ccc(F)c3c2CC[C@H]3Oc2ccc3c(c2)OC[C@H]3CC(=O)O)c(F)c1` [Example 55, ((S)-6-{(R)-7-Fluoro-4-[2-fluoro-4-(1-methyl-1H-pyrazol-5-yl)phenoxy]-indan-1-yloxy}-2,3-dihydrobenzofuran-3-yl)-acetic acid] came in with an EC50 of 6 nM.
